From patent publication US12371426B2, “Pyridazine derivatives as SMARCA2/4 degraders” (Aurigene Discovery Technologies Limited, priority 2018, dated 2025)
pIC50: −log10 of the molar value.

What follows are molecules tested on NCI-H929 cells (assay: Anti proliferative activity in NCI-H929 cell line by Cell Titer Glo assay). Settings: Homo sapiens, 72 h, 3 days compound incubation, CellTiter Glo, read-out: Anti-proliferative activity IC50 group (NCI-H929 cells).
Format: cell-based
Experimental: Determination of Anti Proliferative Activity of Compounds in NCI-H929 and NCI-H838 Cell Lines by Cell Titer Glo® (promega) assay:
NCI-H929 (ATCC CRL-9068) or NCI-H838 (ATCC CRL-5844) cells were seeded in 96 well plate flat black clear bottom plates (Corning, Cat. No 3904) using complete RPMI-1640 media. Next day, compounds listed in the present invention were added to cells from 10 mM stocks made in DMSO (Sigma Cat no. D2650). Each concentration of compound was tested in triplicate with DMSO concentration at a final percentage not exceeding 0.3 in the cells. After the compound incubation (3 days for H929 and 8 days for H838) assay was terminated using 50 μl of CellTiter Glo® reagent (Promega, Cat. no G7572). CellTiter Glo® Luminescent reagent determines the number of viable cells based on quantitation of ATP present which is an indicator of cell number and metabolic activity. Luminescence readings were taken in Victor-3 instrument. Percent inhibition of proliferation was calculated using formula, % inhibition=100−(luminescence value of test/luminescence value of DMSO control)*100. DMSO control (0%)=Cells in complete media with DMSO; blank=Media alone containing DMSO. IC50 was calculated using graph pad prism software.
Herein group “A” refers to IC50 value lower than 1 μM, “B” refers to IC50 value between 1-10 μM (both inclusive) and “C” refers to IC50 value higher than 10 μM or less than 50% activity at 10 μM.
For `Cc1ncsc1-c1ccc(CNC(=O)[C@@H]2C[C@@H](O)CN2C(=O)[C@@H](NC(=O)COCCNC(=O)C2CCN(c3cc(-c4ccccc4O)nnc3N)CC2)C(C)(C)C)cc1` [Compound 1, 1-(3-amino-6-(2-hydroxyphenyl)pyridazin-4-yl)-N-(2-(2-(((S)-1-((2S,4R)-4-hydroxy-2-((4-(4-methylthiazol-5-yl)benzyl)carbamoyl)pyrrolidin-1-yl)-3,3-dimethyl-1-oxobutan-2-yl)amino)-2-oxoethoxy)ethyl)piperidine-4-carboxamide], the pIC50 was < 5.00.
For `Cc1ncsc1-c1ccc(CNC(=O)[C@@H]2C[C@@H](O)CN2C(=O)[C@@H](NC(=O)COCCOCCNC(=O)C2CCN(c3cc(-c4ccccc4O)nnc3N)CC2)C(C)(C)C)cc1` [Compound 2], the pIC50 was < 5.00.
For `Cc1ncsc1-c1ccc(CNC(=O)[C@@H]2C[C@@H](O)CN2C(=O)[C@@H](NC(=O)COCCOCCOCCOCCNC(=O)C2CCN(c3cc(-c4ccccc4O)nnc3N)CC2)C(C)(C)C)cc1` [Compound 3], the pIC50 was < 5.00.
`Cc1ncsc1-c1ccc(CNC(=O)[C@@H]2C[C@@H](O)CN2C(=O)[C@@H](NC(=O)COCCOCCOCCNC(=O)C2CCN(c3cc(-c4ccccc4O)nnc3N)CC2)C(C)(C)C)cc1` [Compound 4] was tested, and the pIC50 was < 5.00.
`Cc1ncsc1-c1ccc(CNC(=O)[C@@H]2C[C@@H](O)CN2C(=O)[C@@H](NC(=O)C2CCN(c3cc(-c4ccccc4O)nnc3N)CC2)C(C)(C)C)cc1` [Compound 5] was tested, and the pIC50 was < 5.00.
With `Nc1nnc(-c2ccccc2O)cc1N1CCC(C(=O)NCCOCC(=O)Nc2cccc3c2C(=O)N(C2CCC(=O)NC2=O)C3=O)CC1` (stereo not shown) [Compound 6] the pIC50 was < 5.00.
For `Nc1nnc(-c2ccccc2O)cc1N1CCC(C(=O)NCCOCCOCCOCCOCC(=O)Nc2cccc3c2C(=O)N(C2CCC(=O)NC2=O)C3=O)CC1` (stereo not shown) [Compound 8], the pIC50 was < 5.00.
For `Nc1nnc(-c2ccccc2O)cc1N1CCC(C(=O)NCCOCCOCC(=O)Nc2cccc3c2C(=O)N(C2CCC(=O)NC2=O)C3=O)CC1` (stereo not shown) [Compound 9], the pIC50 was < 5.00.
`Nc1nnc(-c2ccccc2O)cc1N1CCC(C(=O)NCCOCCOCCOCC(=O)Nc2cccc3c2CN(C2CCC(=O)NC2=O)C3=O)CC1` (stereo not shown) [Compound 12] was tested, and the pIC50 was < 5.00.
`Cc1ncsc1-c1ccc(CNC(=O)[C@@H]2C[C@@H](O)CN2C(=O)[C@@H](NC(=O)COCC(=O)NC2CCN(c3cc(-c4ccccc4O)nnc3N)CC2)C(C)(C)C)cc1` [Compound 14] was tested, and the pIC50 was < 5.00.
For `Nc1nnc(-c2ccccc2O)cc1N1CCC(NC(=O)COCC(=O)Nc2cccc3c2CN(C2CCC(=O)NC2=O)C3=O)CC1` (stereo not shown) [Compound 15], the pIC50 was < 5.00.
In the case of `Nc1nnc(-c2ccccc2O)cc1N1CCC(NC(=O)COCC(=O)Nc2cccc3c2C(=O)N(C2CCC(=O)NC2=O)C3=O)CC1` (stereo not shown) [Compound 16], the pIC50 was < 5.00.
With `Nc1nnc(-c2ccccc2O)cc1N1CCC(NC(=O)CCCCCCC(=O)Nc2cccc3c2CN(C2CCC(=O)NC2=O)C3=O)CC1` (stereo not shown) [Compound 17] the pIC50 was < 5.00.
`Nc1nnc(-c2ccccc2O)cc1N1CCC(NC(=O)CCCCCCCCCC(=O)Nc2cccc3c2CN(C2CCC(=O)NC2=O)C3=O)CC1` (stereo not shown) [Compound 18] was tested, and the pIC50 was < 5.00.
With `Nc1nnc(-c2ccccc2O)cc1N1CCC(NC(=O)CCCCCCC(=O)Nc2cccc3c2C(=O)N(C2CCC(=O)NC2=O)C3=O)CC1` (stereo not shown) [Compound 19] the pIC50 was < 5.00.
In the case of `Cc1ncsc1-c1ccc(CNC(=O)[C@@H]2C[C@@H](O)CN2C(=O)[C@@H](NC(=O)CCCC(=O)NC2CCN(c3cc(-c4ccccc4O)nnc3N)CC2)C(C)(C)C)cc1` [Compound 20], the pIC50 was < 5.00.
In the case of `Cc1ncsc1-c1ccc(CNC(=O)[C@@H]2C[C@@H](O)CN2C(=O)[C@@H](NC(=O)CCCCCCC(=O)NC2CCN(c3cc(-c4ccccc4O)nnc3N)CC2)C(C)(C)C)cc1` [Compound 21], the pIC50 was < 5.00.
For `Cc1ncsc1-c1ccc(CNC(=O)[C@H]2C[C@H](O)CN2C(=O)[C@H](NC(=O)CCCCCCCCCC(=O)NC2CCN(c3cc(-c4ccccc4O)nnc3N)CC2)C(C)(C)C)cc1` [Compound 22], the pIC50 was < 5.00.
With `Cc1ncsc1-c1ccc([C@H](C)NC(=O)[C@@H]2C[C@@H](O)CN2C(=O)[C@@H](NC(=O)CCCCCCC(=O)NC2CCN(c3cc(-c4ccccc4O)nnc3N)CC2)C(C)(C)C)cc1` [Compound 23] the pIC50 was 5.00 to 6.00.
In the case of `Nc1nnc(-c2ccccc2O)cc1N1CCN(C(=O)CCCC(=O)Nc2cccc3c2CN(C2CCC(=O)NC2=O)C3=O)CC1` (stereo not shown) [Compound 25], the pIC50 was < 5.00.
In the case of `Nc1nnc(-c2ccccc2O)cc1N1CCN(C(=O)CCCCCCC(=O)Nc2cccc3c2CN(C2CCC(=O)NC2=O)C3=O)CC1` (stereo not shown) [Compound 26], the pIC50 was < 5.00.
`Nc1nnc(-c2ccccc2O)cc1N1CCN(C(=O)CCCCCCCCCC(=O)Nc2cccc3c2CN(C2CCC(=O)NC2=O)C3=O)CC1` (stereo not shown) [Compound 27] was tested, and the pIC50 was < 5.00.
With `Nc1nnc(-c2ccccc2O)cc1N1CCN(C(=O)COCC(=O)Nc2cccc3c2CN(C2CCC(=O)NC2=O)C3=O)CC1` (stereo not shown) [Compound 28] the pIC50 was < 5.00.
For `Nc1nnc(-c2ccccc2O)cc1N1CCN(C(=O)COCC(=O)Nc2cccc3c2C(=O)N(C2CCC(=O)NC2=O)C3=O)CC1` (stereo not shown) [Compound 29], the pIC50 was < 5.00.
`Nc1nnc(-c2ccccc2O)cc1N1CCN(C(=O)CCCCCCC(=O)Nc2cccc3c2C(=O)N(C2CCC(=O)NC2=O)C3=O)CC1` (stereo not shown) [Compound 30] was tested, and the pIC50 was < 5.00.
With `Cc1ncsc1-c1ccc(CNC(=O)[C@@H]2C[C@@H](O)CN2C(=O)[C@@H](NC(=O)COCC(=O)N2CCN(c3cc(-c4ccccc4O)nnc3N)CC2)C(C)(C)C)cc1` [Compound 31] the pIC50 was < 5.00.
`Cc1ncsc1-c1ccc(CNC(=O)[C@@H]2C[C@@H](O)CN2C(=O)[C@@H](NC(=O)CCCC(=O)N2CCN(c3cc(-c4ccccc4O)nnc3N)CC2)C(C)(C)C)cc1` [Compound 33] was tested, and the pIC50 was < 5.00.
In the case of `Cc1ncsc1-c1ccc(CNC(=O)[C@@H]2C[C@@H](O)CN2C(=O)[C@@H](NC(=O)CCCCCCC(=O)N2CCN(c3cc(-c4ccccc4O)nnc3N)CC2)C(C)(C)C)cc1` [Compound 34], the pIC50 was < 5.00.
`Cc1ncsc1-c1ccc(CNC(=O)[C@@H]2C[C@@H](O)CN2C(=O)[C@@H](NC(=O)CCCCCCCCCC(=O)N2CCN(c3cc(-c4ccccc4O)nnc3N)CC2)C(C)(C)C)cc1` [Compound 35] showed a pIC50 of 5.00 to 6.00.
In the case of `Nc1nnc(-c2ccccc2O)cc1N1CCN(CC(=O)Nc2cccc3c2CN(C2CCC(=O)NC2=O)C3=O)CC1` (stereo not shown) [Compound 42], the pIC50 was < 5.00.
For `COc1ccccc1-c1cc(N2CCN(CC(=O)N[C@H](C(=O)N3C[C@H](O)C[C@H]3C(=O)N[C@@H](C)c3ccc(-c4scnc4C)cc3)C(C)(C)C)CC2)c(N)nn1` [Compound 45], the pIC50 was < 5.00.
With `Cc1ncsc1-c1ccc([C@H](C)NC(=O)[C@@H]2C[C@@H](O)CN2C(=O)[C@@H](NC(=O)CN2CCN(c3cc(-c4ccccc4)nnc3N)CC2)C(C)(C)C)cc1` [Compound 46] the pIC50 was < 5.00.
Molecule `Cc1ncsc1-c1ccc([C@H](C)NC(=O)[C@@H]2C[C@@H](O)CN2C(=O)[C@@H](NCC(=O)N2CCN(c3cc(-c4ccccc4O)nnc3N)CC2)C(C)(C)C)cc1` [Compound 49, (2S,4R)-1-((S)-2-((2-(4-(3-amino-6-(2-hydroxyphenyl)pyridazin-4-yl)piperazin-1-yl)-2-oxoethyl)amino)-3,3-dimethylbutanoyl)-4-hydroxy-N—((S)-1-(4-(4-methylthiazol-5-yl)phenyl)ethyl)pyrrolidine-2-carboxamide] has a pIC50 of 5.00 to 6.00.
With `Cc1ncsc1-c1ccc([C@H](C)NC(=O)[C@@H]2C[C@@H](O)CN2C(=O)[C@@H](NC(=O)CN2CCN(c3cc(Cl)nnc3N)CC2)C(C)(C)C)cc1` [Compound 50, (2S,4R)-1-((S)-2-(2-(4-(3-amino-6-chloropyridazin-4-yl)piperazin-1-yl)acetamido)-3,3-dimethylbutanoyl)-4-hydroxy-N—((S)-1-(4-(4-methylthiazol-5-yl)phenyl)ethyl)pyrrolidine-2-carboxamide] the pIC50 was < 5.00.
For `Cc1ncsc1-c1ccc(CNC(=O)[C@@H]2C[C@@H](O)CN2C(=O)[C@@H](NC(=O)COCCN2CCN(c3cc(-c4ccccc4O)nnc3N)CC2)C(C)(C)C)cc1` [Compound 53, (2S,4R)-1-((S)-2-(2-(2-(4-(3-amino-6-(2-hydroxyphenyl)pyridazin-4-yl)piperazin-1-yl)ethoxy)acetamido)-3,3-dimethylbutanoyl)-4-hydroxy-N-(4-(4-methylthiazol-5-yl)benzyl)pyrrolidine-2-carboxamide], the pIC50 was < 5.00.
With `Cc1ncsc1-c1ccc([C@H](C)NC(=O)[C@@H]2C[C@@H](O)CN2C(=O)[C@@H](NC(=O)CN2CCN(c3cc(-c4ccccc4O)nnc3O)CC2)C(C)(C)C)cc1` [Compound 54, (2S,4R)-4-hydroxy-1-((S)-2-(2-(4-(3-hydroxy-6-(2-hydroxyphenyl)pyridazin-4-yl)piperazin-1-yl)acetamido)-3,3-dimethylbutanoyl)-N—((S)-1-(4-(4-methylthiazol-5-yl)phenyl)ethyl)pyrrolidine-2-carboxamide] the pIC50 was < 5.00.
In the case of `Cc1ncsc1-c1ccc([C@H](C)NC(=O)[C@@H]2C[C@@H](O)CN2C(=O)[C@@H](NC(=O)CN2CCN(c3ccnnc3N)CC2)C(C)(C)C)cc1` [Compound 67, (2S,4R)-1-((S)-2-(2-(4-(3-aminopyridazin-4-yl)piperazin-1-yl)acetamido)-3,3-dimethylbutanoyl)-4-hydroxy-N—((S)-1-(4-(4-methylthiazol-5-yl)phenyl)ethyl)pyrrolidine-2-carboxamide], the pIC50 was < 5.00.
